Tested on: IL-8
Assay: ELISA, carvacrol-induced IL-8 release in NHEK
Assay type: cell-based, human
Conditions: 1 µM with 300 µM carvacrol, 24 h
From the text: Constitutive activation of TRPV3 due to continuous stimulation or the presence of Olmsted mutations causes noticeable skin inflammation due to the increased secretion of pro-inflammatory cytokines from the keratinocytes. Besides, in atopic dermatitis (AD), cytokine release from keratinocytes contributes to the inflammatory environment, which drives many characteristic AD symptoms. Therefore, we determined the effect of TRPV3 activation on cytokine release instead of TRPV3 expression and evaluated whether alpha-mangostin suppressed TRPV3-mediated cytokine secretion in normal human keratinocytes. The levels of secreted cytokines (interleukin (IL)-6, IL-8, and tumor necrosis factor-alpha (TNF-α)) were measured using enzyme-linked Immunosorbent assay (ELISA) kits due to their high sensitivity and quantitation ability. The cells were induced with 300 µM carvacrol, with or without 1 µM alpha-mangostin, and 10 µM 74a.
Figure 5 Alpha-mangostin (α-MG) inhibited carvacrol-induced cytokine release in NHEK cells and rescued carvacrol-induced cell death. (A) Alpha-mangostin inhibited the carvacrol-induced release of IL-8 and IL-6 in NHEK. Cells were induced by 300 µM carvacrol with or without either 1 µM alpha-mangostin or 10 µM 74a for 24 h before the ELISA assay. (B) Alpha-mangostin reduced cell death caused by carvacrol in human keratinocytes. […]

SMILES: COc1c(O)cc2oc3cc(O)c(CC=C(C)C)c(O)c3c(=O)c2c1CC=C(C)C [Alpha-mangostin]
- Effect on IL-8 levels: drastically attenuated

Source: paper PMC10455244, “Alpha-Mangostin: A Potent Inhibitor of TRPV3 and Pro-Inflammatory Cytokine Secretion in Keratinocytes” (International Journal of Molecular Sciences, 2023)
